Assays:
[1] = Visual cloudiness of surfactant formulation with added agent after 20:1 dilution with water; type: physicochemical; parameters: key: Samples that appeared cloudy (turbid) within less than a day were noted as cloudy (“Yes”); Samples that did not appear cloudy (turbid) within less than a day were noted as not cloudy (“No”); settings: 0.5 g formula, 10 ml deionized water; for Cloudy at 1:20 dilution at 2%, 4%, and/or 6%: Table 3, visual, within less than a day; for Added at 2%: cloudy at 20:1 dilution: agent at 2%; for Added at 4%: cloudy at 20:1 dilution: agent at 4%; for Added at 6%: cloudy at 20:1 dilution: agent at 6%; for Added at 8%: cloudy at 20:1 dilution: agent at 8%
Method: Now referring to Tables 3 and 4, the following surfactant formulations were made by mixing 1.6% perfume, 24% sodium undecyl sulfate (CAS#1072-24-8) active, 6% lauramidopropyl betaine (CAS#4292-10-8) active, and 60.4% deionized water which leaves 8% unfilled for the addition of the listed agents (the balance being filled in by distilled water). The agents were added at a percentage of 2%, 4%, 6%, and 8% into the above surfactant formulation. The resulting formulations were vortexed and put into oven at 60° C. overnight to form homogeneous solution. For all formulations, the surfactant, water and additives, including the added agents, were expected to be in a single phase.
The resulting formulations were weighed out in a scintillation vial combined with 10 ml of water to achieve a representative dilution during use: 0.5 g formula, 10 ml deionized water for 20:1 dilution. After the combination of the ingredients, the vial was vigorously shaken by hand and the samples were visually inspected by looking at the solution against a dark background. Samples that appeared cloudy (turbid) within less than a day were noted as cloudy (“Yes”). […] Samples that appeared cloudy at the 20:1 dilution for any of the 2%, 4% or 6% concentration of oil may be most desirable by requiring a limited amount of the agent to be added, limiting cost and trade-offs associated with higher levels.
The appearance of a cloudy formulation at 1:20 dilution at 2%, 4%, and/or 6% can signal improved deposition of surfactant soluble active agents during consumer use.

[2] = Kinematic viscosity at 40 C of surfactant base formulation with added agent (Cannon viscometer); type: physicochemical; settings: for Lowest viscosity achieved (cSt): Table 1, base formulation 24% sodium undecyl sulfate, 6% lauramidopropyl betaine, 1.6% perfume, agent at 2%, 4%, 6%, 8%, 40° C.; for Kinematic viscosity at 40 C. [cSt], 2% oil: agent added at 2% to base formulation; for Kinematic viscosity at 40 C. [cSt], 4% oil: agent added at 4% to base formulation; for Kinematic viscosity at 40 C. [cSt], 6% oil: agent added at 6% to base formulation; for Kinematic viscosity at 40 C. [cSt], 8% oil: agent added at 8% to base formulation
Description: Referring to Tables 1 and 2, the base formulations were made by mixing 1.6% perfume, 24% sodium undecyl sulfate (CAS#1072-24-8) active, 6% lauramidopropyl betaine (CAS#4292-10-8) active and 60.4% deionized water which leaves 8% unfilled for the addition of a viscosity reducing agent (the balance being filled in by distilled water). For all compositions, the surfactant, water and additives including viscosity reducing agents were expected to be in a single phase.
The agents from Tables 1 and 2 were added to the base formulation at a percentage of 2%, 4%, 6%, and 8% into the above surfactant solution. The subsequent formulations were vortexed and put into oven at 60° C. overnight to form homogeneous solution. The viscosities of the formulations were measured with calibrated viscometers (Size 200/350/450) from Cannon Instrument Company (2139 High Tech Road, State College, Pa., USA, 16803).
After the equilibration, the formulations were drawn to reach the starting mark with a rubber suction bulb and the flow time between the starting mark and end mark was recorded for calculation. Each formulation was measured three times to calculate average and standard deviation. Between samples, viscometer was cleaned with water and acetone to rinse off residual.
Viscosity values were calculated based on the equation:
Viscosity (mm^2/s·(cSt))=Time (s)*Constant (mm^2/s^2·(cSt/s))
The time in the above equation is the flow time recorded in the experiment and the constant numbers for each calibrated viscometer were obtained from the manuals. […]
The viscosities of the formulations are measured with calibrated viscometers (Size 200/350/450) from Cannon Instrument Company (2139 High Tech Road, State College, Pa., USA, 16803). Prior to the measurement, the formulations are equilibrated in the viscometer reservoir for 30 min at 40° C. in water bath to ensure a homogeneous temperature is reached in the system. […]

Compound: C=CC(C)(CCC=C(C)C)OC(=O)C(C)C (stereo not drawn) [Linalyl Iso Butyrate]
- Cloudy at 1:20 dilution at 2%, 4%, and/or 6% [1]: Yes
- Added at 2%: cloudy at 20:1 dilution [1]: No
- Added at 4%: cloudy at 20:1 dilution [1]: No
- Added at 6%: cloudy at 20:1 dilution [1]: Yes
- Added at 8%: cloudy at 20:1 dilution [1]: Yes
- Lowest viscosity achieved (cSt) [2]: 38 cSt
- Kinematic viscosity at 40 C. [cSt], 2% oil [2]: 223.4 cSt
- Kinematic viscosity at 40 C. [cSt], 4% oil [2]: 73.0 cSt
- Kinematic viscosity at 40 C. [cSt], 6% oil [2]: 37.7 cSt
- Kinematic viscosity at 40 C. [cSt], 8% oil [2]: 39.9 cSt

Compound: CCCCCC1(C)CCC(C)(C)C1=O (stereo not drawn) [Veloutone]
- Cloudy at 1:20 dilution at 2%, 4%, and/or 6% [1]: Yes
- Added at 2%: cloudy at 20:1 dilution [1]: No
- Added at 4%: cloudy at 20:1 dilution [1]: No
- Added at 6%: cloudy at 20:1 dilution [1]: Yes
- Added at 8%: cloudy at 20:1 dilution [1]: Yes
- Lowest viscosity achieved (cSt) [2]: 47 cSt
- Kinematic viscosity at 40 C. [cSt], 2% oil [2]: 260.2 cSt
- Kinematic viscosity at 40 C. [cSt], 4% oil [2]: 129.1 cSt
- Kinematic viscosity at 40 C. [cSt], 6% oil [2]: 56.3 cSt
- Kinematic viscosity at 40 C. [cSt], 8% oil [2]: 47.3 cSt

Compound: CC1=CC=C(C(C)C)CC1 [alpha-Terpinene]
- Cloudy at 1:20 dilution at 2%, 4%, and/or 6% [1]: Yes
- Added at 2%: cloudy at 20:1 dilution [1]: No
- Added at 4%: cloudy at 20:1 dilution [1]: No
- Added at 6%: cloudy at 20:1 dilution [1]: Yes
- Added at 8%: cloudy at 20:1 dilution [1]: Yes
- Lowest viscosity achieved (cSt) [2]: 42 cSt
- Kinematic viscosity at 40 C. [cSt], 2% oil [2]: 324.4 cSt
- Kinematic viscosity at 40 C. [cSt], 4% oil [2]: 96.0 cSt
- Kinematic viscosity at 40 C. [cSt], 6% oil [2]: 41.5 cSt
- Kinematic viscosity at 40 C. [cSt], 8% oil [2]: 46.7 cSt

Compound: CC1=CCC(C(C)C)=CC1 [gamma-Terpinene]
- Cloudy at 1:20 dilution at 2%, 4%, and/or 6% [1]: Yes
- Added at 2%: cloudy at 20:1 dilution [1]: No
- Added at 4%: cloudy at 20:1 dilution [1]: No
- Added at 6%: cloudy at 20:1 dilution [1]: Yes
- Added at 8%: cloudy at 20:1 dilution [1]: Yes
- Lowest viscosity achieved (cSt) [2]: 32 cSt
- Kinematic viscosity at 40 C. [cSt], 2% oil [2]: 238.0 cSt
- Kinematic viscosity at 40 C. [cSt], 4% oil [2]: 65.0 cSt
- Kinematic viscosity at 40 C. [cSt], 6% oil [2]: 31.7 cSt
